Laboratory results as given in ChEMBL document CHEMBL3351223, “Single Diastereomer of a Macrolactam Core Binds Specifically to Myeloid Cell Leukemia 1 (MCL1)” (ACS Med Chem Lett, 2014).
Calls of active or inactive are those of the source. The rule behind the calls is not given here.

Columns and labels:
[1] = target: T1, Induced myeloid leukemia cell differentiation protein Mcl-1 (Homo sapiens, UniProt Q07820)
Description: Binding affinity to human MCL1 (173 to 329 aa) using TAMRA-labeled Noxa peptide preincubated for 30 mins by fluorescent polarization assay

[2] = target: T1, Induced myeloid leukemia cell differentiation protein Mcl-1; remark: listed apart in the source
Description: Binding affinity to human MCL1 (173 to 329 aa) at 250 uM by differential scanning calorimetry assay

[3] = target: T1, Induced myeloid leukemia cell differentiation protein Mcl-1; remark: listed apart in the source
[4] = target: T1, Induced myeloid leukemia cell differentiation protein Mcl-1; remark: listed apart in the source
[5] = target: T1, Induced myeloid leukemia cell differentiation protein Mcl-1; details: 25 uM
[6] = target: T1, Induced myeloid leukemia cell differentiation protein Mcl-1; details: 100 uM
[7] = target: T1, Induced myeloid leukemia cell differentiation protein Mcl-1; details: 800 uM

T1 sequence (Q07820 whole entry): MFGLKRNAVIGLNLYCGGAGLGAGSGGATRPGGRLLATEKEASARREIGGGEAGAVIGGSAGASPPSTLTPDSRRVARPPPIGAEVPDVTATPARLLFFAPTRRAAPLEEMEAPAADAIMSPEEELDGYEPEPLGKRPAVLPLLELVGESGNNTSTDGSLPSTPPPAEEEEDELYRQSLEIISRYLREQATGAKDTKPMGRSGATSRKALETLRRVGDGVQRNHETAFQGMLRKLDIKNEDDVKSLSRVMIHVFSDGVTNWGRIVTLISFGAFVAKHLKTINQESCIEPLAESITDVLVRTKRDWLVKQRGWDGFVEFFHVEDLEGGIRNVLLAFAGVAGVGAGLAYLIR

| IC50 [1] [µM] | ΔTm [2] [°C] | SMILES | further results |
| --- | --- | --- | --- |
| > 50 | 0.2 | C[C@@H]1CN([C@@H](C)C(=O)O)C(=O)c2cccc(NS(=O)(=O)c3ccc(F)cc3)c2O[C@@H]1CN(C)C(=O)Nc1ccccc1 | – |
| 21.3 | 1.9 | C[C@@H]1CN([C@@H](C)C(=O)O)C(=O)c2cccc(NS(=O)(=O)c3ccccc3F)c2O[C@@H]1CN(C)C(=O)Nc1ccc(C(F)(F)F)cc1 | – |
| – | – | CN(C)C(=O)Nc1ccc(C(F)(F)F)cc1 | Activity [3]: inactive; Activity [4]: inactive |
| 4.1 | 3.4 | C[C@@H]1CN([C@@H](C)C(=O)O)C(=O)c2cccc(NS(=O)(=O)c3cccc(F)c3)c2O[C@@H]1CN(C)C(=O)Nc1ccc(C(F)(F)F)cc1 | – |
| > 50 | 0.2 | C[C@@H]1CN([C@@H](C)C(=O)O)C(=O)c2cccc(NS(=O)(=O)c3ccc(F)cc3)c2O[C@@H]1CN(C)C(=O)Nc1ccccc1C(F)(F)F | – |
| > 25 | 0.2 | C[C@@H]1CN([C@@H](C)C(=O)O)C(=O)c2cccc(NS(=O)(=O)c3ccc(F)cc3)c2O[C@@H]1CN(C)C(=O)Nc1cccc(C(F)(F)F)c1 | – |
| > 25 | 0.8 | C[C@@H]1CN([C@@H](C)C(=O)O)C(=O)c2cccc(NS(=O)(=O)c3ccc(F)cc3)c2O[C@@H]1CN(C)C(=O)Nc1ccc2ccccc2c1 | – |
| 10 | 2.8 | C[C@@H]1CN([C@@H](C)C(=O)O)C(=O)c2cccc(NS(=O)(=O)c3ccccc3)c2O[C@@H]1CN(C)C(=O)Nc1ccc(C(F)(F)F)cc1 | – |
| – | – | NS(=O)(=O)c1ccc(F)cc1 | Activity [3]: inactive; Activity [4]: inactive |
| – | – | C[C@@H]1CN([C@@H](C)CO)C(=O)c2cccc(NS(=O)(=O)c3ccc(F)cc3)c2O[C@@H]1CN(C)C(=O)Nc1ccc(C(F)(F)F)cc1 | ΔTm [5]: 0.6 °C; ΔTm [6]: 1.9 °C; Activity [7]: inactive |
| > 50 | 1.4 | C[C@@H]1CN([C@@H](C)C(=O)O)C(=O)c2cccc(NS(=O)(=O)Cc3ccccc3)c2O[C@@H]1CN(C)C(=O)Nc1ccc(C(F)(F)F)cc1 | – |
| – | – | C[C@@H]1CN([C@@H](C)CO)C(=O)c2cccc(NS(=O)(=O)c3ccccc3)c2O[C@@H]1CN(C)C(=O)Nc1ccc(C(F)(F)F)cc1 | ΔTm [5]: 0.3 °C |
| > 50 | 0.2 | COc1ccc(NC(=O)N(C)C[C@H]2Oc3c(NS(=O)(=O)c4ccc(F)cc4)cccc3C(=O)N([C@@H](C)C(=O)O)C[C@H]2C)cc1 | – |
| > 50 | 0.4 | C[C@@H]1CN([C@@H](C)C(=O)O)C(=O)c2cccc(NS(=O)(=O)CCc3ccccc3)c2O[C@@H]1CN(C)C(=O)Nc1ccc(C(F)(F)F)cc1 | – |
| > 50 | -0.1 | C[C@@H]1CN([C@@H](C)C(=O)O)C(=O)c2cccc(NS(=O)(=O)c3ccc(F)cc3)c2O[C@@H]1CN(C)C(=O)Nc1cccc2ccccc12 | – |
